According to ChEMBL document CHEMBL1255199, “Endochin optimization: structure-activity and structure-property relationship studies of 3-substituted 2-methyl-4(1H)-quinolones with antimalarial activity” (J Med Chem, 2010):
≈ marks a conversion by molar mass, not a printed value.

Test system: Plasmodium falciparum
Assay: Antimalarial activity against chloroquine, mefloquine, pyrimethamine and atovaquone-resistant Plasmodium falciparum TM90-C2B infected in human A+ erythrocytes after 72 hrs by SYBR Green I assay
Format: functional, organism-based
Details: not given
`Cc1[nH]c2cc(Cl)cc(Cl)c2c(=O)c1-c1ccccc1` showed an EC50 of 3.44 µM. In the case of `CCc1c(C)[nH]c2cc(OC)c(F)cc2c1=O`, the EC50 is reported as 0.161 µM. `CCc1c(C)[nH]c2cc(OC)c(Cl)cc2c1=O` showed an EC50 of 0.0276 µM. In the case of `CCc1c(C)[nH]c2cc(OC)c(Br)cc2c1=O`, the EC50 is reported as 0.0363 µM. With `COc1cc2[nH]c(C)c(C)c(=O)c2cc1Cl` the EC50 was 0.0273 µM. `COc1cc2[nH]c(C)c(C(C)C)c(=O)c2cc1Cl` gave an EC50 of 0.194 µM. Molecule `COc1cc2[nH]c(C)cc(=O)c2cc1Cl` has an EC50 of 1.86 µM. `Cc1[nH]c2ccc(Cl)cc2c(=O)c1Cc1ccccc1` showed an EC50 of 3.28 µM. Work on `Cc1[nH]c2cc(Cl)ccc2c(=O)c1Cc1ccccc1` yielded an EC50 of 15.7 µM. In the case of `Cc1[nH]c2c(Cl)cccc2c(=O)c1Cc1ccccc1`, the EC50 is reported as > 8.81 µM. `Cc1[nH]c2cccc(Cl)c2c(=O)c1-c1ccccc1` showed an EC50 of 4.74 µM.

Test system: not listed separately
Assay: Half life in mouse liver microsomes
Format: ADME, Microsome
Details: not given
`CCc1c(C)[nH]c2cc(OC)c(Cl)cc2c1=O` showed a half-life of 28.4 min. Molecule `COc1cc2[nH]c(C)cc(=O)c2cc1Cl` has a half-life of 62.4 min.

Test system: not listed separately
Assay: Passive transcellular permeability of the compound at pH 7.4 by PAMPA
Format: ADME
Details: read-out: permeability
For `Cc1[nH]c2cc(Cl)cc(Cl)c2c(=O)c1-c1ccccc1`, the Papp was 320 ×10⁻⁶ cm/s. In the case of `CCc1c(C)[nH]c2cc(OC)c(F)cc2c1=O`, the Papp is reported as 19.1 ×10⁻⁶ cm/s. Work on `CCc1c(C)[nH]c2cc(OC)c(Cl)cc2c1=O` yielded a Papp of 57.3 ×10⁻⁶ cm/s. With `CCc1c(C)[nH]c2cc(OC)c(Br)cc2c1=O` the Papp was 75.1 ×10⁻⁶ cm/s. In the case of `COc1cc2[nH]c(C)c(C)c(=O)c2cc1Cl`, the Papp is reported as 59.2 ×10⁻⁶ cm/s. `COc1cc2[nH]c(C)c(C(C)C)c(=O)c2cc1Cl` gave a Papp of 187 ×10⁻⁶ cm/s. Work on `COc1cc2[nH]c(C)cc(=O)c2cc1Cl` yielded a Papp of 25.2 ×10⁻⁶ cm/s. For `Cc1[nH]c2ccc(Cl)cc2c(=O)c1Cc1ccccc1`, the Papp was 415 ×10⁻⁶ cm/s. `Cc1[nH]c2cc(Cl)ccc2c(=O)c1Cc1ccccc1` showed a Papp of 392 ×10⁻⁶ cm/s. With `Cc1[nH]c2c(Cl)cccc2c(=O)c1Cc1ccccc1` the Papp was 412 ×10⁻⁶ cm/s. `Cc1[nH]c2cccc(Cl)c2c(=O)c1-c1ccccc1` showed a Papp of 99.6 ×10⁻⁶ cm/s.

Test system: not listed separately
Assay: Half life in human liver microsomes
Format: ADME, Microsome
Details: not given
For `CCc1c(C)[nH]c2cc(OC)c(Cl)cc2c1=O`, the half-life was 33.8 min. `COc1cc2[nH]c(C)cc(=O)c2cc1Cl` showed a half-life of 161 min.

Test system: not listed separately
Assay: Lipophilicity, log D of the compound at pH 7.4
Details: buffer
With `Cc1[nH]c2cc(Cl)cc(Cl)c2c(=O)c1-c1ccccc1` the logD was 2.72. With `CCc1c(C)[nH]c2cc(OC)c(F)cc2c1=O` the logD was 1.2. `CCc1c(C)[nH]c2cc(OC)c(Cl)cc2c1=O` gave a logD of 2.43. Work on `CCc1c(C)[nH]c2cc(OC)c(Br)cc2c1=O` yielded a logD of 1.7. In the case of `COc1cc2[nH]c(C)c(C)c(=O)c2cc1Cl`, the logD is reported as 1.86. Work on `COc1cc2[nH]c(C)c(C(C)C)c(=O)c2cc1Cl` yielded a logD of 2.84. In the case of `COc1cc2[nH]c(C)cc(=O)c2cc1Cl`, the logD is reported as 1.95. For `Cc1[nH]c2ccc(Cl)cc2c(=O)c1Cc1ccccc1`, the logD was 2.79. `Cc1[nH]c2cc(Cl)ccc2c(=O)c1Cc1ccccc1` gave a logD of 2.69. `Cc1[nH]c2c(Cl)cccc2c(=O)c1Cc1ccccc1` showed a logD of 2.78. For `Cc1[nH]c2cccc(Cl)c2c(=O)c1-c1ccccc1`, the logD was 1.88.

Test system: not listed separately
Assay: Passive transcellular permeability of the compound at pH 4 by PAMPA
Format: ADME
Details: not given
With `CCc1c(C)[nH]c2cc(OC)c(F)cc2c1=O` the permeability was 22.9 ×10⁻⁶ cm/s.

Same assay, conditions: read-out: permeability
In the case of `Cc1[nH]c2cc(Cl)cc(Cl)c2c(=O)c1-c1ccccc1`, the Papp is reported as 460 ×10⁻⁶ cm/s. `CCc1c(C)[nH]c2cc(OC)c(Cl)cc2c1=O` showed a Papp of 96.4 ×10⁻⁶ cm/s. `CCc1c(C)[nH]c2cc(OC)c(Br)cc2c1=O` gave a Papp of 81.9 ×10⁻⁶ cm/s. `COc1cc2[nH]c(C)c(C)c(=O)c2cc1Cl` showed a Papp of 37 ×10⁻⁶ cm/s. Molecule `COc1cc2[nH]c(C)c(C(C)C)c(=O)c2cc1Cl` has a Papp of 281 ×10⁻⁶ cm/s. For `COc1cc2[nH]c(C)cc(=O)c2cc1Cl`, the Papp was 11.9 ×10⁻⁶ cm/s. For `Cc1[nH]c2ccc(Cl)cc2c(=O)c1Cc1ccccc1`, the Papp was 422 ×10⁻⁶ cm/s. Work on `Cc1[nH]c2cc(Cl)ccc2c(=O)c1Cc1ccccc1` yielded a Papp of 341 ×10⁻⁶ cm/s. For `Cc1[nH]c2c(Cl)cccc2c(=O)c1Cc1ccccc1`, the Papp was 430 ×10⁻⁶ cm/s. Molecule `Cc1[nH]c2cccc(Cl)c2c(=O)c1-c1ccccc1` has a Papp of 91 ×10⁻⁶ cm/s.

Test system: not listed separately
Assay: in vitro
Details: mouse, J774 cells
Description: Cytotoxicity index, ratio of EC50 for mice (Mus musculus) J774 cells to EC50 for chloroquine, mefloquine, pyrimethamine and atovaquone-resistant Plasmodium falciparum TM90-C2B
With `Cc1[nH]c2cc(Cl)cc(Cl)c2c(=O)c1-c1ccccc1` the selectivity ratio was > 9.5. Molecule `CCc1c(C)[nH]c2cc(OC)c(F)cc2c1=O` has a selectivity ratio of 58.3. `CCc1c(C)[nH]c2cc(OC)c(Cl)cc2c1=O` gave a selectivity ratio of 689. With `CCc1c(C)[nH]c2cc(OC)c(Br)cc2c1=O` the selectivity ratio was > 933. `COc1cc2[nH]c(C)c(C)c(=O)c2cc1Cl` gave a selectivity ratio of 449. Molecule `COc1cc2[nH]c(C)c(C(C)C)c(=O)c2cc1Cl` has a selectivity ratio of 112. In the case of `COc1cc2[nH]c(C)cc(=O)c2cc1Cl`, the selectivity ratio is reported as > 24.1. For `Cc1[nH]c2ccc(Cl)cc2c(=O)c1Cc1ccccc1`, the selectivity ratio was > 10.7. In the case of `Cc1[nH]c2cc(Cl)ccc2c(=O)c1Cc1ccccc1`, the selectivity ratio is reported as > 2.2. For `Cc1[nH]c2c(Cl)cccc2c(=O)c1Cc1ccccc1`, the selectivity ratio was > 4. With `Cc1[nH]c2cccc(Cl)c2c(=O)c1-c1ccccc1` the selectivity ratio was > 7.8.

Test system: Plasmodium falciparum
Assay: Antimalarial activity against chloroquine and pyrimethamine-resistant Plasmodium falciparum W2 infected in human A+ erythrocytes after 72 hrs by SYBR Green I assay
Format: functional, organism-based
Details: W2, 72 h
For `Cc1[nH]c2cc(Cl)cc(Cl)c2c(=O)c1-c1ccccc1`, the EC50 was 2.15 µM. `CCc1c(C)[nH]c2cc(OC)c(F)cc2c1=O` showed an EC50 of 0.368 µM. For `CCc1c(C)[nH]c2cc(OC)c(Cl)cc2c1=O`, the EC50 was 0.0482 µM. For `CCc1c(C)[nH]c2cc(OC)c(Br)cc2c1=O`, the EC50 was 0.179 µM. With `COc1cc2[nH]c(C)c(C)c(=O)c2cc1Cl` the EC50 was 0.0566 µM. With `COc1cc2[nH]c(C)c(C(C)C)c(=O)c2cc1Cl` the EC50 was 0.112 µM. In the case of `COc1cc2[nH]c(C)cc(=O)c2cc1Cl`, the EC50 is reported as 3.18 µM. Work on `Cc1[nH]c2ccc(Cl)cc2c(=O)c1Cc1ccccc1` yielded an EC50 of 2.47 µM. Work on `Cc1[nH]c2cc(Cl)ccc2c(=O)c1Cc1ccccc1` yielded an EC50 of 2.17 µM. With `Cc1[nH]c2c(Cl)cccc2c(=O)c1Cc1ccccc1` the EC50 was > 8.81 µM. Molecule `Cc1[nH]c2cccc(Cl)c2c(=O)c1-c1ccccc1` has an EC50 of 5.06 µM.

Test system: not listed separately
Assay: physchem
Details: aqueous, pH 7.4
Description: Aqueous solubility of the compound at pH 7.4 by HPLC analysis
`Cc1[nH]c2cc(Cl)cc(Cl)c2c(=O)c1-c1ccccc1` gave a solubility of 5 µM (≈ 1.52 µg/mL). With `CCc1c(C)[nH]c2cc(OC)c(F)cc2c1=O` the solubility was < 2 µM. In the case of `CCc1c(C)[nH]c2cc(OC)c(Cl)cc2c1=O`, the solubility is reported as 10 µM (≈ 2.52 µg/mL). With `CCc1c(C)[nH]c2cc(OC)c(Br)cc2c1=O` the solubility was 2 µM (≈ 0.592 µg/mL). For `COc1cc2[nH]c(C)c(C)c(=O)c2cc1Cl`, the solubility was 5 µM (≈ 1.19 µg/mL). For `COc1cc2[nH]c(C)c(C(C)C)c(=O)c2cc1Cl`, the solubility was > 20 µM. Work on `COc1cc2[nH]c(C)cc(=O)c2cc1Cl` yielded a solubility of 2 µM (≈ 0.447 µg/mL). With `Cc1[nH]c2ccc(Cl)cc2c(=O)c1Cc1ccccc1` the solubility was < 2 µM. In the case of `Cc1[nH]c2cc(Cl)ccc2c(=O)c1Cc1ccccc1`, the solubility is reported as < 2 µM. For `Cc1[nH]c2c(Cl)cccc2c(=O)c1Cc1ccccc1`, the solubility was 5 µM (≈ 1.42 µg/mL). For `Cc1[nH]c2cccc(Cl)c2c(=O)c1-c1ccccc1`, the solubility was 10 µM (≈ 2.7 µg/mL).

Test system: J774
Assay: Cytotoxicity against mouse J774 cells
Format: cell-based
Details: not given
In the case of `Cc1[nH]c2cc(Cl)cc(Cl)c2c(=O)c1-c1ccccc1`, the EC50 is reported as > 32.9 µM. In the case of `CCc1c(C)[nH]c2cc(OC)c(F)cc2c1=O`, the EC50 is reported as 9.4 µM. Work on `CCc1c(C)[nH]c2cc(OC)c(Cl)cc2c1=O` yielded an EC50 of 19 µM. In the case of `CCc1c(C)[nH]c2cc(OC)c(Br)cc2c1=O`, the EC50 is reported as > 33.9 µM. `COc1cc2[nH]c(C)c(C)c(=O)c2cc1Cl` gave an EC50 of 12.2 µM. Molecule `COc1cc2[nH]c(C)c(C(C)C)c(=O)c2cc1Cl` has an EC50 of 21.7 µM. For `COc1cc2[nH]c(C)cc(=O)c2cc1Cl`, the EC50 was > 44.7 µM. For `Cc1[nH]c2ccc(Cl)cc2c(=O)c1Cc1ccccc1`, the EC50 was > 35.2 µM. For `Cc1[nH]c2cc(Cl)ccc2c(=O)c1Cc1ccccc1`, the EC50 was > 35.2 µM. For `Cc1[nH]c2c(Cl)cccc2c(=O)c1Cc1ccccc1`, the EC50 was > 35.2 µM. In the case of `Cc1[nH]c2cccc(Cl)c2c(=O)c1-c1ccccc1`, the EC50 is reported as > 37.1 µM.
